The source of these data is ChEMBL document CHEMBL1128211, “3D-quantitative structure-activity relationships of human immunodeficiency virus type-1 proteinase inhibitors: comparative molecular field analysis of 2-heterosubstituted statine derivatives-implications for the design of novel inhibitors” (J Med Chem, 1995).

As usually defined, the Ki is the dissociation constant of the complex between target and ligand, obtained from inhibition or displacement. High values mean a looser hold on the target, low ones a stronger hold on the target.

For the assay, the target named is Human immunodeficiency virus type 1 protease (Human immunodeficiency virus 1, UniProt Q72874). Nature of the assay: Inhibitory activity was determined against HIV type 1 protease.
`CC(C)[C@H](NC(=O)[C@H](NCc1ccc(Cl)cc1)[C@H](O)[C@@H](N)Cc1ccccc1)C(=O)NCc1nc2ccccc2[nH]1` gave a Ki of 182 nM.

The compound `CC(C)(C)OC(=O)N[C@@H](Cc1ccccc1)[C@@H](O)[C@@H](NCc1ccc(CNC(=O)CCc2nc3ccccc3[nH]2)cc1)C(=O)NC(CO)c1ccccc1` (stereo not given in full) gave an inhibition constant Ki of 2510 nM.

`COc1ccc(CN[C@@H](C(=O)N[C@@H]2c3ccccc3CC2O)[C@H](O)[C@H](Cc2ccccc2)NC(=O)[C@@H](NC(=O)OCc2ccccc2)C(C)(C)C)cc1` (stereo not given in full) gave a Ki of 9.55 nM.

`CCCCCCCCOC(=O)N[C@H](C(=O)N[C@@H](Cc1ccccc1)[C@@H](O)[C@@H](NCc1ccccc1)C(=O)N[C@H](C(=O)NCc1ccccc1)C(C)C)C(C)(C)C` had a Ki of 14.1 nM.

As for `COc1ccc(CN[C@@H](C(=O)N[C@H]2c3ccccc3CC2O)[C@H](O)[C@H](Cc2ccccc2)NC(=O)[C@@H](NC(=O)OCc2ccccc2)C(C)(C)C)cc1` (stereo not given in full), the affinity corresponds to a Ki of 1820 nM.

Compound `CC(C)[C@H](NC(=O)OCc1ccccc1)C(=O)N[C@@H](Cc1ccccc1)[C@@H](O)[C@@H](NCc1ccccc1)C(=O)N[C@H](C(=O)NCc1ccccc1)C(C)(C)C` gave a Ki of 20 nM.

Take `COc1ccc(CN[C@@H](C(=O)N[C@H](C(=O)NCc2nc3ccccc3[nH]2)C(C)C)[C@H](O)[C@@H](N)Cc2ccccc2)cc1`: the Ki was 229 nM.

Take `CC(C)[C@H](NC(=O)OCc1ccccc1)C(=O)N[C@@H](Cc1ccccc1)[C@@H](O)[C@@H](Nc1ccc(-c2ccccc2)cc1)C(=O)N[C@H](C(=O)NCc1nc2ccccc2[nH]1)C(C)C`: the affinity, expressed as Ki, was 8.91 nM.

Compound `COc1ccc(CN[C@@H](C(=O)N[C@H](C(=O)NCCc2ccc(O)cc2)C(C)C)[C@H](O)[C@H](Cc2ccccc2)NC(=O)[C@@H](NC(=O)OCc2ccccc2)C(C)C)cc1` had a Ki of 18.2 nM.

In the case of `CC(=O)NCc1ccc(CN[C@@H](C(=O)N[C@H]2c3ccccc3CC2O)[C@H](O)[C@H](Cc2ccccc2)NC(=O)OC(C)(C)C)cc1` (stereo not given in full), the Ki is 70.8 nM.

Compound `COC(=O)CC[C@H](NC(=O)[C@H](NCc1ccc(OC)cc1)[C@H](O)[C@H](Cc1ccccc1)NC(=O)[C@@H](NC(=O)OCc1ccccc1)C(C)C)C(=O)NCc1ccc(OC)cc1O` gave a Ki of 6.03 nM.

Compound `CC(C)[C@H](NC(=O)OCc1ccccc1)C(=O)N[C@@H](Cc1ccccc1)[C@@H](O)[C@@H](NC[C@H](O)c1ccccc1)C(=O)N[C@H](C(=O)NCc1nc2ccccc2[nH]1)C(C)C` had a Ki of 28.2 nM.

`COc1ccc(CN[C@@H](C(=O)N[C@H](C(=O)NCn2nnc3ccccc32)C(C)C)[C@H](O)[C@H](Cc2ccccc2)NC(=O)[C@@H](NC(=O)OCc2ccccc2)C(C)C)cc1` had a Ki of 15.1 nM.

In turn, `CC(C)[C@H](NC(=O)CCCCCNC(=O)OC(C)(C)C)C(=O)N[C@@H](Cc1ccccc1)[C@@H](O)[C@@H](NCc1ccccc1)C(=O)N[C@H](C(=O)NCc1ccccc1)C(C)C` showed a Ki of 20.9 nM.

`COc1ccc(CN[C@@H](C(=O)N[C@H](C(=O)N[C@H](CO)c2ccccc2)C(C)C)[C@H](O)[C@H](Cc2ccccc2)NC(=O)[C@@H](NC(=O)OCc2ccccc2)C(C)C)cc1` showed an inhibition constant (Ki) of 14.1 nM.

With `COc1ccc(CN[C@@H](C(=O)N[C@H](C(=O)NCc2ccc(N3NC=CS3)cc2)C(C)C)[C@H](O)[C@H](Cc2ccccc2)NC(=O)[C@@H](NC(=O)OCc2ccccc2)C(C)C)cc1`, the Ki is 14.1 nM.

`CCOC(=O)[C@H](NCc1ccc(CNC(=O)c2ccccc2)cc1)[C@H](O)[C@H](Cc1ccccc1)NC(=O)[C@@H](NC(=O)OCc1ccccc1)C(C)C` showed a Ki of 933 nM.

With `COc1ccc(CN[C@@H](C(=O)N[C@H]2c3ccccc3CC2O)[C@H](O)[C@H](Cc2ccccc2)NC(=O)[C@@H](NC(=O)OC(C)(C)C)C(C)(C)C)cc1` (stereo not given in full), the inhibitory constant (Ki) was 209 nM.

As to `CC(C)(C)[C@H](NC(=O)OCc1ccccc1)C(=O)N[C@@H](Cc1ccccc1)[C@@H](O)[C@@H](NCc1ccc(CNC(=O)Nc2ccccc2)cc1)C(=O)N[C@H]1c2ccccc2CC1O` (stereo not given in full), the affinity, expressed as Ki, was 3.31 nM.

On to `CC(C)[C@H](N)C(=O)N[C@@H](Cc1ccccc1)[C@@H](O)[C@@H](NCc1ccccc1)C(=O)N[C@H](C(=O)NCc1ccccc1)C(C)C`, for which the Ki was 741 nM.
